We go through 42 compounds from ChEMBL document CHEMBL1156872, “Synthesis and discovery of 2,3-dihydro-3,8-diphenylbenzo[1,4]oxazines as a novel class of potent cholesteryl ester transfer protein inhibitors” (Bioorg Med Chem Lett, 2010).

As a reminder, the solubility is how much of the substance goes into solution per volume. High values mean much dissolved substance, low ones little dissolved substance. The IC50 is the concentration needed to halve the response being measured. Higher therefore signals a need for much substance. Broadly, the inhibition is the change of the read-out against control, counted positive when it falls. By half-life is commonly meant the time in which the quantity being followed falls by half. Read a low half-life as fast loss.

Test system in one series: not listed separately
Nature of the series: Aqueous solubility at pH 2.0. Type of series: physicochemical. Particulars: aqueous medium.
Take `O[C@@H](CN1c2cccc(-c3cccc(OC(F)(F)F)c3)c2CC[C@@H]1c1cccc(OC(F)(F)C(F)F)c1)C(F)(F)F`: the solubility was < 1 µg/mL.

Another series addresses T1, Cholesteryl ester transfer protein (Homo sapiens, UniProt P11597).
T1 sequence (P11597 whole entry): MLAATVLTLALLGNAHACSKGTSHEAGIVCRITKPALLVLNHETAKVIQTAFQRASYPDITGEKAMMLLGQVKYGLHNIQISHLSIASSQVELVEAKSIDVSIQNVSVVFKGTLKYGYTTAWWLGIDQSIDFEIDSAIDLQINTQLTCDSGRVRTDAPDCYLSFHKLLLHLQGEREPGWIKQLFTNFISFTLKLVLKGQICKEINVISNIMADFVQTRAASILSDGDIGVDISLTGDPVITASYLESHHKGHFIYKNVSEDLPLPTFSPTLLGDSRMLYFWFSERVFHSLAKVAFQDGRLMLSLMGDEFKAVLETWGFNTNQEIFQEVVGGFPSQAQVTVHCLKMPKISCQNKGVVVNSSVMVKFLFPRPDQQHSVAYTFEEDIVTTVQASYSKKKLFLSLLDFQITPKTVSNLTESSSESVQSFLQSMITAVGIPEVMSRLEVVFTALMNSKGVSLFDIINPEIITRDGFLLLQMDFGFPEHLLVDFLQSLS
Nature of the series: Inhibition of human cholesteryl ester transfer protein by scintillation proximity assay.
Conditions: not given
(Scintillation proximity formats need no separation of bound from free tracer.)
Take `C[C@H](O)CN1c2cccc(-c3cccc(OC(F)(F)F)c3)c2OC[C@@H]1c1cccc(OC(F)(F)C(F)F)c1`: the IC50 is 88 nM. For `OC(CN1c2cccc(-c3cccc(OC(F)(F)F)c3)c2OCC1c1cccc(OC(F)(F)C(F)F)c1)C(F)(F)F` (mixture of isomers), the half-maximal inhibitory concentration (IC50) was found to be 45 nM. `OC(CN1c2cccc(-c3cccc(OC(F)(F)F)c3)c2OCC1c1cccc(OC(F)(F)F)c1)C(F)(F)F` (mixture of isomers) had a half-inhibitory concentration (IC50) of 107 nM. In turn, `O[C@@H](CN1c2cccc(-c3cccc(OC(F)(F)F)c3)c2OC[C@@H]1c1cccc(OC(F)(F)F)c1)C(F)(F)F` had an IC50 of 133 nM. The compound `CC(C)C(O)CN1c2cccc(-c3cccc(OC(F)(F)F)c3)c2OCC1c1cccc(OC(F)(F)C(F)F)c1` (mixture of isomers) yielded a half-inhibitory concentration (IC50) of 129 nM. `OC(CN1c2cccc(-c3cccc(OC(F)(F)F)c3)c2OCC1c1ccc2c(c1)OC(F)(F)O2)C(F)(F)F` (mixture of isomers) had an IC50 of 271 nM.

Test system in another series: not listed separately
Nature of the series: Aqueous solubility at pH 7.4. The format is physicochemical. The conditions noted are these: aqueous medium.
Turning to `O[C@@H](CN1c2cccc(-c3cccc(OC(F)(F)F)c3)c2CC[C@@H]1c1cccc(OC(F)(F)C(F)F)c1)C(F)(F)F`, the solubility was < 1 µg/mL.

The target in another series is T2, Cholesteryl ester transfer protein (Homo sapiens) (UniProt P11597).
T2 sequence (whole entry): T1 sequence (P11597 whole entry)
Nature of the series: Inhibition of human cholesteryl ester transfer protein at 1 uM by scintillation proximity assay.
Conditions: not given
For `OCCN1c2cccc(-c3cccc(OC(F)(F)F)c3)c2OCC1c1cccc(OC(F)(F)C(F)F)c1` (racemic), the inhibition amounted to 29%. Still for that read-out and setting: the figure for `CN(C)CCN1c2cccc(-c3cccc(OC(F)(F)F)c3)c2OCC1c1cccc(OC(F)(F)C(F)F)c1` (racemic) is 9%; for `C[C@H](O)CN1c2cccc(-c3cccc(OC(F)(F)F)c3)c2OC[C@@H]1c1cccc(OC(F)(F)C(F)F)c1` it is 50%. In the case of `O[C@@H](CN1c2cccc(-c3cccc(OC(F)(F)F)c3)c2OC[C@H]1c1cccc(OC(F)(F)C(F)F)c1)C(F)(F)F`, the inhibition was found to be 14%. Regarding `O[C@H](CN1c2cccc(-c3cccc(OC(F)(F)F)c3)c2OC[C@H]1c1cccc(OC(F)(F)C(F)F)c1)C(F)(F)F`, the inhibition came to 26%. Turning to `OC(CN1c2cccc(-c3cccc(OC(F)(F)F)c3)c2OCC1c1cccc(OC(F)(F)C(F)F)c1)C(F)(F)F` (mixture of isomers), the inhibition was determined as 96%.

With `OC(CN1c2cccc(-c3cccc(OC(F)(F)F)c3)c2OCC1c1ccc(OC(F)(F)F)cc1)C(F)(F)F` (mixture of isomers), the inhibition came to 38%. With `OC(CN1c2cccc(-c3cccc(OC(F)(F)F)c3)c2OCC1c1cccc(SC(F)(F)F)c1)C(F)(F)F` (mixture of isomers), the inhibition worked out at 68%. With `OC(CN1c2cccc(-c3cccc(OC(F)(F)F)c3)c2OCC1c1cccc(OC(F)(F)F)c1)C(F)(F)F` (mixture of isomers), the inhibition was found to be 65%. Same read-out and setting: the figure for `FC(F)C(F)(F)Oc1cccc(C2COc3c(-c4cccc(OC(F)(F)F)c4)cccc3N2CCN2CCOCC2)c1` (racemic) is 0%. Still for that read-out and setting: the figure for `O[C@H](CF)CN1c2cccc(-c3cccc(OC(F)(F)F)c3)c2OC[C@@H]1c1cccc(OC(F)(F)C(F)F)c1` is 77%; for `O[C@@H](CF)CN1c2cccc(-c3cccc(OC(F)(F)F)c3)c2OC[C@@H]1c1cccc(OC(F)(F)C(F)F)c1` it is 55%. On the same count and under the same terms, the value for `O[C@@H](CN1c2cccc(-c3cccc(OC(F)(F)F)c3)c2OC[C@@H]1c1cccc(OC(F)(F)F)c1)C(F)(F)F` was 69%. Consider `COc1cccc(C2COc3c(-c4cccc(OC(F)(F)F)c4)cccc3N2CC(O)C(F)(F)F)c1` (mixture of isomers), for which the inhibition was found to be 29%. Still for that read-out and setting: the figure for `O[C@H](CN1c2cccc(-c3cccc(OC(F)(F)F)c3)c2OC[C@@H]1c1cccc(OC(F)(F)C(F)F)c1)C(F)(F)F` is 23%. On the same count and under the same terms, the figure for `C[C@@H](O)CN1c2cccc(-c3cccc(OC(F)(F)F)c3)c2OC[C@@H]1c1cccc(OC(F)(F)C(F)F)c1` is 28%; for `CC1(C)OC[C@@H](CN2c3cccc(-c4cccc(OC(F)(F)F)c4)c3OC[C@@H]2c2cccc(OC(F)(F)C(F)F)c2)O1` (mixture of isomers) it is 25%. On the same count and under the same terms, the figure for `OC[C@@H](O)CN1c2cccc(-c3cccc(OC(F)(F)F)c3)c2OC[C@@H]1c1cccc(OC(F)(F)C(F)F)c1` is 27%. For `O[C@@H](CN1c2cccc(-c3cc(F)c(F)c(F)c3)c2OC[C@@H]1c1cccc(OC(F)(F)F)c1)C(F)(F)F`, the inhibition is 94%. Same read-out and setting: the figure for `COCCN1c2cccc(-c3cccc(OC(F)(F)F)c3)c2OCC1c1cccc(OC(F)(F)C(F)F)c1` (racemic) is 25%; for `CC(=O)CN1c2cccc(-c3cccc(OC(F)(F)F)c3)c2OC[C@@H]1c1cccc(OC(F)(F)C(F)F)c1` it is 5%. As to `CCOc1cccc(C2COc3c(-c4cccc(OC(F)(F)F)c4)cccc3N2CC(O)C(F)(F)F)c1` (mixture of isomers), the inhibition amounted to 56%. With `O[C@@H](CN1c2cccc(-c3cc(F)cc(F)c3)c2OC[C@@H]1c1cccc(OC(F)(F)C(F)F)c1)C(F)(F)F`, the inhibition was 100%.

`O[C@@H](CN1c2cccc(-c3cc(F)c(F)c(F)c3)c2OC[C@@H]1c1cccc(OC(F)(F)C(F)F)c1)C(F)(F)F`: the inhibition was 101%. Regarding `OCCCN1c2cccc(-c3cccc(OC(F)(F)F)c3)c2OCC1c1cccc(OC(F)(F)C(F)F)c1` (racemic), the inhibition is 10%.

Take `CCN1c2cccc(-c3cccc(OC(F)(F)F)c3)c2OCC1c1cccc(OC(F)(F)C(F)F)c1` (racemic): the inhibition came to 24%.

For `OC(CN1c2cccc(-c3cccc(OC(F)(F)F)c3)c2OCC1c1ccccc1)C(F)(F)F` (mixture of isomers), the inhibition stood at 43%. Still for that read-out and setting: the value for `OC(CN1c2cccc(-c3cccc(F)c3)c2OCC1c1cccc(OC(F)(F)C(F)F)c1)C(F)(F)F` (mixture of isomers) was 79%. As for `OC(CN1c2cccc(-c3cccc(OC(F)(F)F)c3)c2OCC1c1ccccc1OC(F)(F)C(F)F)C(F)(F)F` (mixture of isomers), the inhibition was found to be 6%.

As for `OC(CN1c2cccc(-c3cccc(OC(F)(F)F)c3)c2OCC1c1cccc(Cl)c1)C(F)(F)F` (mixture of isomers), the inhibition turned out to be 62%. As for `OC(CN1c2cccc(-c3cccc(OC(F)(F)F)c3)c2OCC1c1ccc(OC(F)(F)C(F)F)cc1)C(F)(F)F` (mixture of isomers), the inhibition is 33%.

Take `COC(=O)N1c2cccc(-c3cccc(OC(F)(F)F)c3)c2OCC1c1cccc(OC(F)(F)C(F)F)c1` (racemic): the inhibition amounted to 16%. Same read-out and setting: the value for `O[C@@H](CN1c2cccc(-c3cc(F)cc(F)c3)c2OC[C@@H]1c1cccc(OC(F)(F)F)c1)C(F)(F)F` was 100%.

Take `NCCN1c2cccc(-c3cccc(OC(F)(F)F)c3)c2OCC1c1cccc(OC(F)(F)C(F)F)c1` (racemic): the inhibition came to 2%.

In the case of `O[C@@H](CN1c2cccc(-c3cc(C(F)(F)F)cc(C(F)(F)F)c3)c2OC[C@@H]1c1cccc(OC(F)(F)C(F)F)c1)C(F)(F)F`, the inhibition amounted to 59%. `CC(C)C(O)CN1c2cccc(-c3cccc(OC(F)(F)F)c3)c2OCC1c1cccc(OC(F)(F)C(F)F)c1` (mixture of isomers): the inhibition came out at 86%.

As to `CC(C)(O)CN1c2cccc(-c3cccc(OC(F)(F)F)c3)c2OCC1c1cccc(OC(F)(F)C(F)F)c1` (racemic), the inhibition came to 29%. With `OC(CN1c2cccc(-c3cccc(OC(F)(F)F)c3)c2OCC1c1ccc2c(c1)OC(F)(F)O2)C(F)(F)F` (mixture of isomers), the inhibition turned out to be 48%. Still for that read-out and setting: the figure for `OC(CN1c2cccc(-c3cccc(OC(F)(F)F)c3)c2OCC1c1cccc(C(F)(F)F)c1)C(F)(F)F` (mixture of isomers) is 37%; for `O=C(CN1c2cccc(-c3cccc(OC(F)(F)F)c3)c2OC[C@@H]1c1cccc(OC(F)(F)C(F)F)c1)C(F)(F)F` it is 5%; for `CCCN1c2cccc(-c3cccc(OC(F)(F)F)c3)c2OCC1c1cccc(OC(F)(F)C(F)F)c1` (racemic) it is 39%.

Test system in a further series: not listed separately
Nature of the series: Half life in human liver microsomes. Type of series: ADME, Microsome.
Conditions: not given
A general note: Liver microsomes are a subcellular fraction often used to study metabolism.
In turn, `O[C@H](CF)CN1c2cccc(-c3cccc(OC(F)(F)F)c3)c2OC[C@@H]1c1cccc(OC(F)(F)C(F)F)c1` yielded a half-life of 21 min.
